# Experimental data taken from patent publication US12674795B2, “Method for peritoneal metastatic cell detection and isolation thereof” (THE UNIVERSITY OF HONG KONG, priority 2019, dated 2026).
# Key:
# M-CSC-HPMC interaction = experiment: Microfluidic perfusion assay of M-CSCs on HPMC-coated channels under shear stress; assay type: cell-based, human; conditions: for effect on M-CSCs binding/adhesion to HPMCs: M-CSCs treated before perfusion, result in words
# Experimental: (§1) Microfluidic chips were fabricated as described^13. To coat microfluidic channels with selectin recombinant proteins, channels were incubated with 1 μg mL^−1 selectin-Fc recombinant proteins in PBS at 4° C. overnight. To coat microfluidic channels with HPMCs, channels were incubated with 10 μg mL^−1 human fibronectin in serum free medium overnight at 4° C. After wash, the channels were introduced with HPMCs suspension (3.5×10^6 mL^−1) and cultured overnight under C02 incubator at 37° C. To functionally block selectins, HPMCs were incubated with 20 μg mL^−1 anti-E-selectin, anti-P-selectin, anti-L-selectin or isotype antibody at room temperature for 1 h before the assays.
# (§2) CSCs of 70-100 μm diameter were collected with cell strainer, fluorescently labeled with CMFDA Celltracker (2.5 μg mL^−1, C7025, Life Technologies) as per manufacturer's instructions for assays. Fluorescently labeled CSCs resuspended in binding buffer (1500 spheroids mL^−1) were perfused into the microfluidic channel through a syringe pump (LongerPump) under desired shear stresses. The viscosity of the binding buffer (0.9 cp) is within the range of viscosity (0.95±0.15 cp) of ascitic fluid in patients with various ascitic etiologies^48. The motion of cancer spheroids was observed under fluorescent microscope (Nikon ECLIPSE Ti) and serial time lapse images (1 image sec^−1) were captured for 30 sec. More than three randomly chosen areas (4× objective) were captured for each treatment.
# (§3) The motion of cancer spheroids under flow was analyzed offline using Image J (National Institutes of Health) and used for the classification of interactions as described^49. Briefly, cancer spheroids that tethered to the surface, then detached in the flow were defined as tethering. Cancer spheroids that moved at a velocity below the hydrodynamic velocity for more than one spheroid diameter were defined as rolling. Cancer spheroids that remained stationary for more than one frame during recording were determined as adhesion. Percentage of tethering or adhesion was calculated by dividing the number of tethering or adherent spheroids by the total number of spheroids flew through the field of observation in the 30 sec duration.
# (§4) In some experiments, M-CSCs were incubated with or without neuramidase (100 mU, N2876, Sigma-Aldrich), α1-3,4 fucosidase (150 mU, P0769S, New England BioLabs), OSGE (100 μg mL^−1, CLE100, Cedarlane) or PNGase (10 U mL^−1, P0704S, New England BioLabs) according to the manufacturer's instructions for 1 h at 37° C. prior staining. To inhibit sulfation, M-CSCs were incubated with sodium chlorate (25 mM, 403016, Sigma-Aldrich) in serum-free medium for 48 h. To functionally block sLe^x, sLe^a or IGF-1R on M-CSCs, M-CSCs were incubated with CSLEX-1 (10 μg mL^−1, 551344, BD Biosciences), anti-CA19-9 (10 μg mL^−1, ab15146, Abcam), anti-IGF-1R (2 μg mL^−1, 24-60, Invitrogen) or isotype antibodies for 1 h at 37° C., respectively. To remove cell surface glycoprotein, M-CSCs were incubated with Trypsin/EDTA solution (0.05%, 25300054, Gibco) for 5 min and neutralized with the complete medium. To inhibit glycolipid synthesis, M-CSCs were cultured with or without DL-PPMP (2.5 μM, sc-205655, Santa Cruz) in serum-free medium for 5 days. To test the involvement of RTKs in mediating CSCs adhesion, M-CSCs were treated with or without small molecule inhibitors as indicated in the FIG. 13 before perfusion. All CSC perfusion experiments were repeated with HPMCs isolated from at least 3 different patients.
# P-selectin-Fc = experiment: Microfluidic perfusion assay of M-CSCs on P-selectin-Fc recombinant protein-coated channels; assay type: cell-based; conditions: for effect on M-CSCs binding/adhesion to P-selectin-Fc: M-CSCs treated before perfusion, result in words
# Experimental: as §1, §2, §3, §4
# [1] = biological target: P-selectin recombinant protein (Homo sapiens, UniProt P16109); experiment: Flow adhesion assay of HM and NM cells on P-selectin recombinant protein; assay type: cell-based; conditions: 5 mM EDTA solution, shear stress 1 dynes/cm^2 for 1 min
# P-selectin recombinant protein, sequence (P16109 with tags, fused parts or gaps limits assumed, species assumed): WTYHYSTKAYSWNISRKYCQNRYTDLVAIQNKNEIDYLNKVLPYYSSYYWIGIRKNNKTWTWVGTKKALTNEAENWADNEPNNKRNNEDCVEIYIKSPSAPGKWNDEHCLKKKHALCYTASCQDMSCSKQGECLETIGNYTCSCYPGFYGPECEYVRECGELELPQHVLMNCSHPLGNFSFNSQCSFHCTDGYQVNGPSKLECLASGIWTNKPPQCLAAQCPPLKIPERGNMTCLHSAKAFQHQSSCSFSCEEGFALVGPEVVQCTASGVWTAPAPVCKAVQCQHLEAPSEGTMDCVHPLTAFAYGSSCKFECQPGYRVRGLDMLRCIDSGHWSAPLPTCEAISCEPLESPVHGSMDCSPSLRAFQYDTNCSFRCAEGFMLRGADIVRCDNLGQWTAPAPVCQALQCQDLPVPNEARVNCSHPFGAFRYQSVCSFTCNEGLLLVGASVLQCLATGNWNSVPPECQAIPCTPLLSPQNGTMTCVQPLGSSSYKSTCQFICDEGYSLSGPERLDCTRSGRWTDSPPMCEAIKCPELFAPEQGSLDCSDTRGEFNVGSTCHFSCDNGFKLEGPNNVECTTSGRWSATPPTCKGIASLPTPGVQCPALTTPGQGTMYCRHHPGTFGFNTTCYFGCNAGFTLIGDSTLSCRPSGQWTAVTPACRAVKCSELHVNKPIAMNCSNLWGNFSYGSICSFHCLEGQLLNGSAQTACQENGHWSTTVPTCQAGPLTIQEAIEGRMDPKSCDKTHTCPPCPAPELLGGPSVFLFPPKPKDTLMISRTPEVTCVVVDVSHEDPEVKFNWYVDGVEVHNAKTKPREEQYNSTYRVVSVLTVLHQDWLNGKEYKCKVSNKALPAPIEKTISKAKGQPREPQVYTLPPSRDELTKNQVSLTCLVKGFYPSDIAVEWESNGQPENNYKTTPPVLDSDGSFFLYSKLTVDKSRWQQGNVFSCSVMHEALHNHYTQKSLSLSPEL
# Source text: FIG. 9A-9E show results of flow adhesion assay. (A) Transient velocities of representative cells on P-selectin recombinant protein. Triangles represent a rolling adhesion highly metastatic (HM) cells; Circles represent a non-interaction non-metastatic (NM) cells quickly passed through the channel. […] (B) Rolling percentage of NM and HM cells on P-selectin recombinant protein. (C) Cumulative frequency rolling velocity histograms. (D) Adhesion percentage of NM and HM cells on P-selectin recombinant protein. HM or NM cells were introduced into flow chambers pre-coated with […] P-selectin-Fc chimera or Fc control at shear stress of 0.1 dyne/cm2. Cell movement was observed under microscope and captured with high speed camera. Cancer cells rolling velocity was calculated by dividing moving distance with duration. […] Adhesion was defined as cancer cells stop moving for more than one second during recording. The rolling or adhesion fraction was quantified through dividing the number of rolling or adhesive cells by the total number of cells traveled into the field of observation area for 30 seconds. (E) Adhesion percentage of NM and HM cells on P-selectin-Fc chimera at shear stress of 0.05-0.15 dyne/cm2. Data are presented as mean±S.E.; *P<0.05, **P<0.01.
# FIG. 10A-10B show EDTA detachment assay. […] (A) A brightfield microscope image of captured HM cells. […]
# P-selectin = biological target: T1, P-selectin (Mus musculus, UniProt Q01102); experiment: Adhesion of tumor cells to the mouse peritoneum; assay type: in vivo; conditions: 1 mg kg^-1 i.p. 1 h prior to injection of M-CSCs from SKOV-3 and ovarian cancer patients; NOD/SCID mice
# T1 construct: from tissue; host or cells: peritoneum, mesentery and omentum of living NOD/SCID mice
# T1 sequence (Q01102 42-768): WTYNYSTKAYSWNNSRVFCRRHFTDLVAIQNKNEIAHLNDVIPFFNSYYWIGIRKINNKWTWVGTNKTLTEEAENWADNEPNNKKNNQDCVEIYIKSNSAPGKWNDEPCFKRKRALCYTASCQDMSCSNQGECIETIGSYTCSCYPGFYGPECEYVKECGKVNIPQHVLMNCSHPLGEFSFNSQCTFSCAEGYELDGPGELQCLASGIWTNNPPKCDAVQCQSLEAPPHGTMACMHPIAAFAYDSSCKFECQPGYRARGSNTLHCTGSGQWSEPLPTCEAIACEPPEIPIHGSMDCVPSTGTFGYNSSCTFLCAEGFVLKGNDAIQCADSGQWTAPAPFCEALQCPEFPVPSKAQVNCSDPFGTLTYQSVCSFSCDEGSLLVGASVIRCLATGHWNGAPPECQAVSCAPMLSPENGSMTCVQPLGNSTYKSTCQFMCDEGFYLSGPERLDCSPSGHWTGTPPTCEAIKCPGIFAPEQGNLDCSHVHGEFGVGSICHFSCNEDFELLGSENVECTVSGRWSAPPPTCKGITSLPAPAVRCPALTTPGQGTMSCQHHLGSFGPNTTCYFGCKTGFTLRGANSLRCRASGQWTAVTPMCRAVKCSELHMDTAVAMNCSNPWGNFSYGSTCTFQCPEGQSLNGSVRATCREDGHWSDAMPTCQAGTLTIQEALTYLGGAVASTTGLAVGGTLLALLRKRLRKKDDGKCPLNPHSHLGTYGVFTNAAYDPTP
# Experimental: M-CSCs (1×10^7) derived from SKOV-3 and ovarian cancer patients were fluorescently labeled with CMFDA and i.p. injected into NOD/SCID mice. To inhibit P-selectin, KF38789 (1 mg kg^−1, 2748, Tocris) or vehicle control were injected into the peritoneal cavity of mice 1 h prior to cell injection. Mice were sacrificed after 16 h and the peritoneal cavity was washed with PBS to remove non-adherent cells. Fluorescent signal from adherent tumor cells was acquired in the IVIS Spectrum and peritoneum, mesentery, and omentum were lysed with 1% NP-40 and fluorescence was measured with VICTOR (PerkinElmer).
# [2] = shear stress around 1 dynes cm^-2
effect on M-CSCs binding/adhesion to HPMCs (M-CSC-HPMC interaction),effect on M-CSCs binding/adhesion to P-selectin-Fc (P-selectin-Fc),detachment of captured HM cells from P-selectin-coated channel bottom [1],"extent of tumor metastases on the omentum, mesenteries and peritoneal wall (P-selectin)",Compound,detachment of adherent M-CSCs from HPMCs (M-CSC-HPMC interaction; [2]),detachment of adherent M-CSCs from P-selectin chimera (P-selectin-Fc; [2])
had no effect,had no effect,,,CCCCCCCCCCCCCCCC(=O)N[C@H](CN1CCOCC1)[C@H](O)c1ccccc1 [PPMP],,
marked decrease,marked decrease,,,O=c1c(-c2ccc(O)cc2)coc2cc(O)cc(O)c12 [genistein],,
inhibited the adhesion,,easily detached,,O=C(O)CN(CCN(CC(=O)O)CC(=O)O)CC(=O)O [EDTA],easily detach,easily detach
,,,significantly inhibited,COc1ccc(C2CC(c3c(O)cc(C)oc3=O)=NCCS2)c(OC)c1 (stereo not drawn) [KF38789],,
almost completely abolished the adhesion,almost completely abolished the adhesion,,,trypsin,,

Compound,effect on M-CSCs binding/adhesion to HPMCs (M-CSC-HPMC interaction),effect on M-CSCs binding/adhesion to P-selectin-Fc (P-selectin-Fc),detachment of captured HM cells from P-selectin-coated channel bottom [1],"extent of tumor metastases on the omentum, mesenteries and peritoneal wall (P-selectin)",detachment of adherent M-CSCs from HPMCs (M-CSC-HPMC interaction; [2]),detachment of adherent M-CSCs from P-selectin chimera (P-selectin-Fc; [2])
[Na+].[O-][Cl+2]([O-])[O-] [sodium chlorate],did not alter the binding activity,did not alter the binding activity,,,,
CC(C)(C)c1cc(C=C(C#N)C#N)cc(Br)c1O [AG1024],marked decrease,marked decrease,,,,
